Results published in ChEMBL document CHEMBL1201862, “PubChem BioAssay data set” (2004).
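In this assay, cells in 96-well plates receive the compound at five concentrations for 48 hours. Endpoints are linearly interpolated between the surrounding concentrations. The concentration for 50% growth inhibition is given as GI50.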 Calls of active or inactive are those of the source. Rule as the data show it: active = GI50 up to about 1.1 µM and inactive = higher.

Legend:
Experiment in all cases: DTP human tumour cell line panel, 48 h
SR = test system: SR
SN12C = test system: SN12C
COLO 205 = test system: COLO 205
IGROV-1 = test system: IGROV-1
OVCAR-3 = test system: OVCAR-3
SK-MEL-28 = test system: SK-MEL-28
SNB-78 = test system: SNB-78
HT-29 = test system: HT-29
OVCAR-5 = test system: OVCAR-5
RXF 393 = test system: RXF 393
K562 = test system: K562
A498 = test system: A498
SK-MEL-2 = test system: SK-MEL-2
SF-295 = test system: SF-295
UO-31 = test system: UO-31
UACC-62 = test system: UACC-62
SF-268 = test system: SF-268
DMS-273 = test system: DMS-273
Malme-3M = test system: Malme-3M
SF-539 = test system: SF-539
786-0 = test system: 786-0
SNB-19 = test system: SNB-19
HCT-15 = test system: HCT-15
MOLT-4 = test system: MOLT-4
ACHN = test system: ACHN
SNB-75 = test system: SNB-75
SK-MEL-5 = test system: SK-MEL-5
U-251 = test system: U-251
NCI-H226 = test system: NCI-H226
M14 = test system: M14
CCRF-CEM = test system: CCRF-CEM
HL-60 = test system: HL-60
HCC 2998 = test system: HCC 2998
NCI-H460 = test system: NCI-H460
OVCAR-4 = test system: OVCAR-4
DMS-114 = test system: DMS-114
CAKI-1 = test system: CAKI-1
M19-MEL = test system: M19-MEL
TK-10 = test system: TK-10
UACC-257 = test system: UACC-257
A549 = test system: A549
NCI-H522 = test system: NCI-H522
KM12 = test system: KM12
OVCAR-8 = test system: OVCAR-8
EKVX = test system: EKVX
HOP-62 = test system: HOP-62
LOX IMVI = test system: LOX IMVI
HCT-116 = test system: HCT-116
RPMI-8226 = test system: RPMI-8226
SK-OV-3 = test system: SK-OV-3
KM-20L2 = test system: KM-20L2
NCI-H23 = test system: NCI-H23
SW-620 = test system: SW-620

COC(=O)c1c(C)oc2ccc(OC(C)=O)cc12
GI50 (SR): > 100 µM (inactive)
GI50 (SN12C): > 100 µM (inactive)
GI50 (COLO 205): > 100 µM (inactive)
GI50 (IGROV-1): > 100 µM (inactive)
GI50 (OVCAR-3): > 100 µM (inactive)
GI50 (SK-MEL-28): > 100 µM (inactive)
GI50 (SNB-78): > 100 µM (inactive)
GI50 (HT-29): 83 µM (inactive)
GI50 (OVCAR-5): > 100 µM (inactive)
GI50 (RXF 393): > 100 µM (inactive)
GI50 (K562): > 100 µM (inactive)
GI50 (A498): > 100 µM (inactive)
GI50 (SK-MEL-2): > 100 µM (inactive)
GI50 (SF-295): > 100 µM (inactive)
GI50 (UO-31): 33.6 µM (inactive)
GI50 (UACC-62): 97.7 µM (inactive)
GI50 (SF-268): 90.8 µM (inactive)
GI50 (DMS-273): > 100 µM (inactive)
GI50 (Malme-3M): > 100 µM (inactive)
GI50 (SF-539): > 100 µM (inactive)
GI50 (786-0): > 100 µM (inactive)
GI50 (SNB-19): > 100 µM (inactive)
GI50 (HCT-15): > 100 µM
GI50 (MOLT-4): > 100 µM (inactive)
GI50 (ACHN): > 100 µM (inactive)
GI50 (SNB-75): 34.8 µM (inactive)
GI50 (SK-MEL-5): > 100 µM (inactive)
GI50 (U-251): > 100 µM (inactive)
GI50 (NCI-H226): > 100 µM (inactive)
GI50 (M14): > 100 µM (inactive)
GI50 (CCRF-CEM): > 100 µM (inactive)
GI50 (HL-60): > 100 µM (inactive)
GI50 (HCC 2998): 30.5 µM (inactive)
GI50 (NCI-H460): > 100 µM (inactive)
GI50 (OVCAR-4): > 100 µM (inactive)
GI50 (DMS-114): > 100 µM (inactive)
GI50 (CAKI-1): > 100 µM (inactive)
GI50 (M19-MEL): > 100 µM (inactive)
GI50 (TK-10): > 100 µM (inactive)
GI50 (UACC-257): > 100 µM (inactive)
GI50 (A549): > 100 µM (inactive)
GI50 (NCI-H522): > 100 µM (inactive)
GI50 (KM12): > 100 µM (inactive)
GI50 (OVCAR-8): > 100 µM (inactive)
GI50 (EKVX): 54.3 µM (inactive)
GI50 (HOP-62): > 100 µM (inactive)
GI50 (LOX IMVI): > 100 µM (inactive)
GI50 (HCT-116): > 100 µM (inactive)
GI50 (RPMI-8226): > 100 µM (inactive)
GI50 (SK-OV-3): > 100 µM (inactive)
GI50 (KM-20L2): > 100 µM (inactive)
GI50 (NCI-H23): > 100 µM (inactive)
GI50 (SW-620): > 100 µM (inactive)
